Source: US11904051B2, “Shear stress sensitive liposomes” (Universität Basel, priority 2018, dated 2024)

Legend:
[1] = reported previously; cited from earlier work
[2] = Differential scanning calorimetry, main phase transition of vesicle membranes; type: physicochemical; conditions: for Tm: main phase transition temperature of liposome membrane
Excerpt: Interdigitation of membrane leaflets also influences the membranes main-phase transition temperature. […] Also, the value for the bilayer main-phase transition temperature is 11.5 K higher than the calculated critical temperature from the monolayer experiments, where no interdigitation is possible.

[3] = Dynamic light scattering of liposome formulations before and after SANS heating cycles; type: physicochemical; conditions: for PDI, After heating / Size (hydrodynamic), After heating: after the SANS experiments (n = 3); for Size (hydrodynamic), After heating: heating to 42° C. and back, eight months after; for PDI, Before heating / Size (hydrodynamic), Before heating: before the SANS experiments (n = 5); for Size (hydrodynamic), Before heating: room temperature, D2O
Procedure: A library of artificial phospholipids was synthesised. Table 5 summarises the characterisation of the liposomal formulations concerning hydrodynamic size and polydispersity, before and after the temperature-dependent SANS measurements. The size of the DPPC and Pad-PC-Pad liposomes was (120±2) nm with a polydispersity index between 0.01 and 0.20. […] Pad-Pad-PC and Sur-PC-Sur liposomes were 400 to 1,500 nm in size with a polydispersity index of 0.57.
DLS measurements were carried out on a DelsaMax PRO (Beckman Coulter, USA) at room temperature and at a lipid concentration of 0.3 mg/mL in D2O. The data were averaged among five independent measurements before heating cycles and three measurements eight months after applying heating cycles. Data were treated with the cumulant analysis method.

[4] = Cryo-TEM of liposomal suspensions of the SANS study; type: physicochemical
Procedure: The liposomal suspensions were diluted at a ratio of 1:2 with D2O, to a final concentration of 5 mg/mL. Next, 4 μL aliquots of each suspension were adsorbed onto a holey carbon-coated grid (Lacey, Tedpella, USA), blotted with Whatman 1 filter paper and vitrified into liquid ethane at a temperature of −178° C., using a Leica GP plunger (Leica, Austria). Frozen grids were transferred onto a Talos electron microscope (Thermo Fisher, USA), using a Gatan 626 cryo-holder. Electron micrographs were recorded at an accelerating voltage of 200 kV and a nominal magnification of 45,000×, using a low-dose system (20 e^−/Å^2) and keeping the sample at liquid nitrogen temperature. Micrographs were recorded on the CETA camera. Pixel size at the sample level was (3.26 Å)^2.

[5] = LUVs, heating and cooling rates of 0.5° C./min

Which results are given for CCCCCCCCCCCCCCCCC(=O)NCC(CNC(=O)CCCCCCCCCCCCCCCC)OP(=O)([O-])OCC[N+](C)(C)C [Rad-PC-Rad, 1,3-diheptadecanamidopropan-2-yl (2-(trimethylammonio)ethyl) phosphate]?
Tm, main phase transition temperature [1]: 45 °C; change in enthalpy at main phase transition [2, 5]: 5.774 kcal/mol; main phase transition temperature [2, 5]: 44.7 °C; Tm [2]: 45 °C; DLS most probable / dominant or smaller population size [3]: about 150 nm; PDI, After heating [3]: 0.32 ± 0.03; Size (hydrodynamic), After heating [3]: 700 ± 100 nm; PDI, Before heating [3]: 0.57 ± 0.01; Size (hydrodynamic), Before heating ([3]; listed as Rad-PC-Rad (5)): 150 ± 3 nm

Which “Tm, main phase transition temperature” value [1] does the source give for CCCCCCCCCCCCCCCC(=O)OC[C@H](COP(=O)([O-])OCC[N+](C)(C)C)OC(=O)CCCCCCCCCCCCCCC [DPPC, 1,2-dipalmitoyl-sn-glycero-3-phosphocholine] here?
Its value is 41 °C.

What about the Tm [2] of the same compound?
Its Tm is 41 °C.

What about the “PDI, After heating” value [3] of the same compound?
Its value is 0.33 ± 0.02.

What about the “Size (hydrodynamic), After heating” value [3] of the same compound?
Its value is 600 ± 40 nm.

What about the “Size (hydrodynamic), Before heating” value [3] of the same compound?
The value was 120±2 nm.

And the “Size (hydrodynamic), Before heating” value ([3]; listed as DPPC (1))?
The value was 120 ± 2 nm.

And the “PDI, Before heating” value ([3]; listed as DPPC (1))?
Its value is 0.01 ± 0.01.

And the “mean size of liposomes derived from cryo-TEM images” value ([4]; after SANS heat treatment and eight months' storage)?
The value was 87±20 nm.

And the multi-lamellar liposomes ([4]; determined by cryo-TEM)?
Its multi-lamellar liposomes is “About 16%”.

Which “Tm, main phase transition temperature” value [1] does the source give for CCCCCCCCCCCCCCCC(=O)NCC(CNC(=O)CCCCCCCCCCCCCCC)OP(=O)([O-])OCC[N+](C)(C)C [Pad-PC-Pad, 1,3-palmitoylamido-1,3-deoxy-sn-glycero-2-phosphatidylcholine] here?
The value was 37 °C.

And the Tm [2]?
The Tm was 37 °C.

What about the “PDI, After heating” value [3] of the same compound?
Its value is 0.33 ± 0.04.

What about the “Size (hydrodynamic), After heating” value [3] of the same compound?
The value was 53 ± 4 nm.

What about the “Size (hydrodynamic), Before heating” value [3] of the same compound?
The value was 120±2 nm.

What about the “Size (hydrodynamic), Before heating” value ([3]; listed as Pad-PC-Pad (4)) of the same compound?
Its value is 126 ± 4 nm.

What about the “PDI, Before heating” value ([3]; listed as Pad-PC-Pad (4)) of the same compound?
Its value is 0.19 ± 0.04.

And the “diameter of flattened liposomes and/or bicelles (cryo-TEM)” value ([4]; heated above Tm)?
The value was “about 50 nm”.

What about the “average size of liposomes estimated from cryo-TEM images” value ([4]; not heated above transition temperature) of the same compound?
Its value is 92±14 nm.
